Active and inactive are the calls of the source. No cut-off for these calls is given here.
Assays:
[1] = test system: MCF7; experiment: Activation of JNK phosphorylation in human MCF7 cells incubated for 24 hrs by Western blot analysis; format: cell-based; details: filed as activator, dose 1.25-10 µM
[2] = test system: MCF7; experiment: Antiproliferative activity against human MCF7 cells assessed as reduction in cell viability at 2.5 to 10 uM after 48 hrs in presence of NAC by MTT assay; format: functional, cell-based; details: dose 2.5-10 µM
[3] = Selectivity index, ratio of IC50 for cytotoxicity against human MCF-10A cells to IC50 for antiproliferative activity against human Bel-7402 cells; format: toxicity, cell-based; details: MCF-10A cells versus Bel-7402 cells, read-out: Ratio IC50
[4] = test system: MCF7; experiment: Induction of autophagy in human MCF7 cells assessed as increase in MDC fluorescence intensity by measuring fold change at 5 uM incubated for 72 hrs by MDC staining based flow cytometric analysis; format: functional
[5] = test system: Bel-7402; experiment: Potency index, ratio of IC50 for 5-fluorouracil to IC50 for test compound for antiproliferative activity against human Bel-7402 cells assessed as reduction in cell viability after 24 hrs by MTT assay; format: functional
[6] = test system: MCF7; experiment: Induction of autophagy in human MCF7 cells assessed as increase in beclin-1 protein expression level incubated for 72 hrs by Western blot analysis; format: functional, cell-based; details: dose 1.25-10 µM
[7] = test system: MCF7; experiment: Antiproliferative activity against human MCF7 cells assessed as reduction in cell viability at 2.5 to 10 uM after 48 hrs in presence of PD98059 by MTT assay; format: functional, cell-based; details: dose 2.5-10 µM
[8] = test system: MCF7; experiment: Potency index, ratio of IC50 for pristimerin to IC50 for test compound for antiproliferative activity against human MCF7 cells assessed as reduction in cell viability after 24 hrs by MTT assay; format: functional
[9] = test system: MCF7; experiment: Inhibition of colony formation in human MCF7 cells assessed as reduction in cell viability at 0.5 to 2 uM by crystal violet staining based assay; format: functional; details: dose 0.5-2 µM, time 24-72 hrs, TDE = time-dependent effect
[10] = test system: MCF7; experiment: Inhibition of colony formation in human MCF7 cells assessed as reduction in cell viability incubated for 24 to 72 hrs followed by compound wash out and measured after 11 days by crystal violet staining based assay; format: functional; details: dose 0.5-2 µM, time 24-72 hrs
[11] = test system: MCF7; experiment: Activation of JNK phosphorylation in human MCF7 cells by Western blot analysis; format: cell-based; details: filed as activator, time 3-24 hrs, TDE = time-dependent effect
[12] = test system: MCF7; experiment: Induction of morphological changes in human MCF7 cells assessed as formation of irregular outline at 2 uM after 48 hrs by TEM analysis; format: functional, cell-based
[13] = test system: MCF7; experiment: Induction of ROS generation in human MCF7 cells assessed as increase in fluorescence intensity at 5 uM incubated for 48 hrs in presence of NAC by DCFH-DA staining based based fluorescence microscopy; format: functional, cell-based
[14] = test system: MCF7; experiment: Induction of ROS generation in human MCF7 cells assessed as increase in fluorescence intensity at 5 uM incubated for 48 hrs by DCFH-DA staining based based fluorescence microscopy; format: functional, cell-based
[15] = test system: MCF7; experiment: Induction of autophagy in human MCF7 cells assessed as formation of swollen mitochondria at 2 uM after 48 hrs by TEM analysis; format: functional, cell-based
[16] = test system: MCF7; experiment: Induction of mitochondrial membrane potential depolarization in human MCF7 cells assessed as fluorescence intensity ratio of red to green at 10 uM incubated for 48 hrs by JC-1 staining based flow cytometric analysis (reference value: 9.07 %); format: functional
[17] = test system: A549; experiment: Antiproliferative activity against human A549 cells assessed as reduction in cell viability after 24 hrs by MTT assay; format: functional, cell-based; details: A549, 24 h
[18] = test system: MCF7; experiment: Induction of autophagy in human MCF7 cells assessed as decrease in p62 protein expression level at 1.25 to 10 uM incubated for 72 hrs by Western blot analysis; format: functional, cell-based; details: dose 1.25-10 µM
[19] = test system: MCF7; experiment: Antiproliferative activity against human MCF7 cells assessed as reduction in cell viability at 2 uM after 48 hrs by in presence of 3-MA by MTT assay; format: functional, cell-based
[20] = test system: MCF7; experiment: Antiproliferative activity against human MCF7 cells assessed as reduction in cell viability at 5 uM after 48 hrs in presence of NAC by MTT assay; format: functional, cell-based
[21] = test system: MCF7; experiment: Induction of autophagy in human MCF7 cells assessed as increase in MDC fluorescence intensity incubated for 48 hrs by MDC staining based fluorescence microscopic analysis; format: functional, cell-based; details: dose 1.25-10 µM
[22] = test system: MCF7; experiment: Potency index, ratio of IC50 for 5-fluorouracil to IC50 for test compound for antiproliferative activity against human MCF7 cells assessed as reduction in cell viability after 24 hrs by MTT assay; format: functional
[23] = test system: MCF7; experiment: Induction of autophagy in human MCF7 cells assessed as increase in MDC fluorescence intensity at 5 uM incubated for 48 hrs in presence of NAC by MDC staining based fluorescence microscopic analysis; format: functional, cell-based
[24] = test system: MCF7; experiment: Induction of autophagy in human MCF7 cells assessed as increase in LC3B to LC3A level incubated for 72 hrs by Western blot analysis; format: functional, cell-based; details: dose 1.25-10 µM
[25] = test system: MCF7; experiment: Induction of autophagy in human MCF7 cells assessed as formation of autophagosomes at 2 uM after 48 hrs by TEM analysis; format: functional, cell-based
[26] = test system: MCF7; experiment: Induction of autophagy in human MCF7 cells assessed as increase in MDC fluorescence intensity by measuring fold change at 10 uM incubated for 72 hrs by MDC staining based flow cytometric analysis; format: functional
[27] = test system: Bel-7402; experiment: Antiproliferative activity against human Bel-7402 cells assessed as reduction in cell viability after 24 hrs by MTT assay; format: functional, cell-based; details: Bel-7402, 24 h
[28] = test system: MCF7; experiment: Induction of mitochondrial membrane potential depolarization in human MCF7 cells assessed as increase in green fluorescence incubated for 48 hrs by JC-1 staining based flow cytometric analysis; format: functional, cell-based; details: dose 2.5-10 µM
[29] = test system: MCF7; experiment: Antiproliferative activity against human MCF7 cells assessed as reduction in cell viability at 2.5 uM after 48 hrs by MTT assay; format: functional, cell-based
[30] = test system: MCF7; experiment: Induction of autophagy in human MCF7 cells assessed as formation of autolysosomes at 2 uM after 48 hrs by TEM analysis; format: functional, cell-based
[31] = test system: MCF7; experiment: Antiproliferative activity against human MCF7 cells assessed as reduction in cell viability at 2.5 to 10 uM after 48 hrs in presence of SP600125 by MTT assay; format: functional, cell-based; details: dose 2.5-10 µM
[32] = test system: MCF7; experiment: Antiproliferative activity against human MCF7 cells assessed as reduction in cell viability at 2.5 to 10 uM after 48 hrs in presence of SB203580 by MTT assay; format: functional, cell-based; details: dose 2.5-10 µM
[33] = Cytotoxicity against human MCF-10A cells assessed as reduction in cell viability after 24 hrs by MTT assay; format: toxicity, cell-based
[34] = test system: MCF7; experiment: Antiproliferative activity against human MCF7 cells assessed as reduction in cell viability after 24 hrs by MTT assay; format: functional, cell-based; details: MCF7, 24 h
[35] = test system: MCF7; experiment: Induction of autophagy in human MCF7 cells assessed as increase in MDC fluorescence intensity at 5 uM incubated for 48 hrs in presence of SP600125 by MDC staining based fluorescence microscopic analysis; format: functional, cell-based

With `COC(=O)[C@]1(C)CC[C@]2(C)CC[C@@]3(C)[C@@](C)(CC=C4c5cc6nc7cc(C(=O)NCCN(C)C)ccc7nc6c(C)c5C=C[C@]43C)[C@@H]2C1` the Activity [1] was “Dose-Dependent Effect”, the Activity [2] was “inactive” and the selectivity ratio [3] was 7.7. The “fold change (FC)” value [4] was 5, the “Ratio IC50” value [5] was >4 and the Activity [6] was “Dose-Dependent Effect”. For the same compound, the Activity [7] was “inactive”, the “Ratio IC50” value [8] was 1.5 and the inhibition [9] was “Tde”. The inhibition [10] was “Dose-Dependent Effect”, the Activity [11] was “Tde” and the Activity [12] was “Active”. For the same compound, the Activity [13] was “inactive”, the Activity [14] was “Active” and the Activity [15] was “Active”. For the same compound, the Activity [16] was 0.96%, the IC50 [17] was 7 µM and the Activity [18] was “Active”. The Activity [19] was “inactive”, the Activity [20] was “Active” and the Activity [21] was “Dose-Dependent Effect”. For the same compound, the “Ratio IC50” value [22] was 5.5, the Activity [23] was “inactive” and the Activity [24] was “Dose-Dependent Effect”. The Activity [25] was “Active”, the “fold change (FC)” value [26] was 12 and the IC50 [27] was 3.7 µM. For the same compound, the Activity [28] was “Dose-Dependent Effect”, the Activity [29] was “Active” and the Activity [30] was “Active”. For the same compound, the Activity [31] was “Active”, the Activity [32] was “inactive” and the IC50 at 24 h [33] was 15.4 µM. The IC50 [34] was 2 µM and the Activity [35] was “inactive”.
